This is an account of results in ChEMBL document CHEMBL1201862, “PubChem BioAssay data set” (2004).

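Cultured in 96-well plates, cells were exposed to test compound for 48 hours across five concentrations. Here, GI50 denotes the concentration required for 50% inhibition of growth.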 Active and inactive are the calls of the source. Rule as the data show it: active = GI50 up to about 1.1 µM and inactive = higher. Bounds are passed on as bounds.

Some test systems named below: OVCAR-8; NCI-H226; ACHN; TK-10; RPMI-8226; HT-29; UACC-62; NCI-H460; EKVX; SNB-19; UACC-257; HCT-15; OVCAR-5; SK-MEL-2; CAKI-1.
Holding throughout (assay): inhibition of tumour cell growth, NCI panel, 48 h

As to `C[N+](C)(C)CC1CCCCC1=O` (stereo not given), the GI50 is 19.2 µM (inactive) in the assay with OVCAR-8; > 100 µM (inactive) in the assay with NCI-H226; 16.4 µM (inactive) in the assay with ACHN; 37.1 µM (inactive) in the assay on TK-10; 9.06 µM (inactive) with RPMI-8226; 19.6 µM (inactive) in the assay on HT-29. Moreover, the GI50 was 18.9 µM (inactive) in the assay with UACC-62; 55.3 µM (inactive) with NCI-H460; 19.9 µM (inactive) in the assay on EKVX; > 100 µM (inactive) with SNB-19; 14.3 µM (inactive) in the assay on UACC-257; 14.1 µM in the assay on HCT-15.

With `CC(=O)Nc1ccc(C(=O)NN2C(=O)C(Cl)C2c2ccccc2)cc1` (stereo not given), the GI50 with OVCAR-8, with NCI-H226, with ACHN, with TK-10, in the assay on OVCAR-5 and in the assay on HT-29 was > 100 µM (inactive) each time. Besides, the GI50 in the assay on UACC-62, in the assay with NCI-H460, in the assay with EKVX, in the assay with SK-MEL-2, with SNB-19 and in the assay on UACC-257 was > 100 µM (inactive) throughout. Moreover, in the assay with CAKI-1, the GI50 is > 100 µM (inactive).

As to `COc1ccc(C(=O)O/N=C2\CCCC\C2=C/c2ccccc2)cc1`, the GI50 was > 100 µM (inactive) with OVCAR-8; 67.3 µM (inactive) in the assay with ACHN; 68.7 µM (inactive) with TK-10; > 100 µM (inactive) in the assay on HT-29; > 100 µM (inactive) in the assay on UACC-62; > 100 µM (inactive) with NCI-H460. Also, the GI50 in the assay on EKVX was > 100 µM (inactive); with SNB-19 it was 58.3 µM (inactive); in the assay on HCT-15 it was over 100 µM; with CAKI-1, 81.5 µM (inactive).

As for `C#CCNC(=O)NCCCC(NC(C)=O)C(=O)NCc1ccccc1` (stereo not given), the GI50 in the assay on OVCAR-8, in the assay with NCI-H226, in the assay with ACHN, in the assay on TK-10, with OVCAR-5 and with RPMI-8226 was > 100 µM (inactive) in each case. Also, the GI50 in the assay on HT-29, in the assay on UACC-62, with NCI-H460, in the assay with EKVX, with SNB-19 and with UACC-257 was > 100 µM (inactive) in each case. Besides, the GI50 in the assay with HCT-15 is over 100 µM; with CAKI-1 it was > 100 µM (inactive).

As for `CCCC(=O)Nc1ccc(O)c2c1C1CCCCCC21` (stereo not given), the GI50 in the assay with OVCAR-8 was > 100 µM (inactive); in the assay on NCI-H226 it was > 100 µM (inactive); in the assay with ACHN it was 71.8 µM (inactive); in the assay with TK-10 it was > 100 µM (inactive); in the assay on RPMI-8226 it was 63.1 µM (inactive); in the assay with HT-29, > 100 µM (inactive). For the same compound, the GI50 in the assay on UACC-62 was 64 µM (inactive); in the assay on NCI-H460, > 100 µM (inactive); in the assay on EKVX, > 100 µM (inactive); with SK-MEL-2, > 100 µM (inactive); in the assay with SNB-19, > 100 µM (inactive); in the assay on UACC-257, 46.7 µM (inactive). For the same compound, the GI50 in the assay on HCT-15 is 74 µM.

As for `CN1CCN(c2nc(N)c(Br)c(Cl)n2)CC1`, the GI50 with OVCAR-8, in the assay with ACHN, with TK-10, in the assay with OVCAR-5, in the assay on RPMI-8226 and in the assay on UACC-62 was > 100 µM (inactive) throughout. Also, the GI50 in the assay on NCI-H460 is > 100 µM (inactive); in the assay on EKVX, > 100 µM (inactive); with SK-MEL-2, > 100 µM (inactive); with SNB-19, > 100 µM (inactive); with UACC-257 it was > 100 µM (inactive); with HCT-15 it was over 100 µM. Moreover, the GI50 in the assay on CAKI-1 is > 100 µM (inactive).
